From patent US8404930B2, “Methods for improving monocot transformation” (Pioneer Hi-Bred International, Inc., priority 2009, dated 2013)
Values joined by “and” are separate entries in the source; they are usually repeats but may differ in a detail not shown here. Equal entries are not always repeated. Where two headings read alike, the source gives them in different places.

Assays:
[1] = test system: Sorghum line TX430 immature embryos
Protocol: (§1) Sorghum line TX430 immature embryos (9-15 DAP when embryo size around 0.8-2.5 mm) were infected with 1×10^9cfu/mL Agrobacterium LBA4404 containing superbinary vector PHPMYFP in PHI-I liquid medium. The embryos were co-cultivated on PHI-T medium plates at 25° C. (ranged 21-25° C.) in dark for 3 days (ranged 1-7 days).
The whole selection step was in dark or dim light at 28° C. After two to three months from the initiation of the experiment, transgenic callus events were cultured for plant regeneration on the same regeneration medium (PHI-RF and PHI-Z) at the regular regeneration conditions.
(§2) Transformation frequency was calculated by the number of embryos producing transgenic plants divided by the number of embryos infected by Agrobacterium.

[2] = test system: Maize inbred PHR03 immature embryos; test: Transformation frequency of maize using various light intensities (Example 18); assay type: cell-based; conditions: 4 μM copper in DBC3 resting and selection media
Protocol: (§3) Maize inbred PHR03 immature embryos (9-13 DAP when embryo size around 0.8-2.5 mm) were infected with 5×10^8 cfu/mL Agrobacterium LBA4404 containing superbinary vector PHPMRFP in PHI-I liquid medium. The embryos were then co-cultivated on PHI-T co-cultivation media plates at 21° C. in dark conditions for 3 days. This may range from 1-7 days.
(§4) The embryos were subcultured every 2-3 weeks.
A regeneration step was followed by culturing the putative transgenic callus on PHI-RF medium plates for producing shoots and a rooting step on medium plates PHI-RR.
as §2

[3] = test system: Sorghum line TX430 immature embryos; conditions: for Transformation frequency (%): dark
Protocol: as §1
(§5) The whole selection step was in dark at 28° C. After two to three months from the initiation of the experiment, transgenic callus events were cultured for plant regeneration on the same regeneration medium (PHI-RF and PHI-Z) at the regular regeneration conditions.
Transformation frequency was calculated by the number of embryos producing transgenic callus capable of regeneration divided by the number of embryos infected by Agrobacterium

[4] = test system: Maize inbred PHR03 immature embryos; conditions: for Transformation frequency (%): dark
Protocol: as §3, §4
(§6) A regeneration step is followed by culturing the putative transgenic callus on PHI-RF medium plates for producing shoots and a rooting step on medium plates PHI-RR.
Transformation frequency was calculated by the number of embryos producing transgenic callus capable of regenerating plants divided by the number of embryos infected by Agrobacterium.

[5] = test system: Sorghum line TX430 immature embryos; conditions: for Transformation frequency (%): dark; remark: listed apart in the source
Protocol: as §1, §5
Transformation frequency was calculated by the number of embryos producing transgenic plants divided by the number of embryos infected by Agrobacterium

[6] = test system: Maize inbred PHR03 immature embryos; conditions: for Transformation frequency (%): dark; remark: listed apart in the source
Protocol: as §3, §4, §6, §2

[7] = 0.1 μM copper (negative control) in DBC3 resting and selection media, Average of exp 1-4
[8] = 0.1 μM copper (negative control) in DBC3 resting and selection media, single experiments exp 1-4
[9] = 5 μM copper in DBC3 resting and selection media, Average of exp 1-4

O=S(=O)([O-])[O-].[Cu+2] [copper, cupric sulfate]
Transformation frequency (%) ([1]; 4 μM copper in DBC3 resting and selection media, Dim light, Average of exp 1-2): 31.3%
Transformation frequency (%) ([1]; 4 μM copper in DBC3 resting and selection media, dark, Average of exp 1-2): 17.1%
Transformation frequency (%) ([1]; 5 μM copper in DBC3 resting and selection media, Dim light, Average of exp 1-2): 20.0%
Transformation frequency (%) ([1]; 5 μM copper in DBC3 resting and selection media, dark, Average of exp 1-2): 26.3%
Transformation frequency (%) ([1]; 5 μM copper in DBC3 resting and selection media, dark, single experiments exp 1-2): 27.5% and 25.0%
Transformation frequency (%) ([2]; Dark, single experiments exp 1-4): 10% and 17.5% and 12.5% and 7.5%
Transformation frequency (%) ([2]; Dim light, Average of exp 1-4): 17.5%
Transformation frequency (%) ([2]; dark, Average of exp 1-4): 11.9%
Transformation frequency (%) ([3]; 0.1 μM copper in DBC3 resting and selection media, Average of exp 1-2): 10.0%
Transformation frequency (%) ([3]; 0.1 μM copper in DBC3 resting and selection media, single experiments exp 1-2): 15.0% and 5.0%
increase of transformation frequency over 0.1 μM copper ([3]; 1 μM copper and above, sorghum): two times
Transformation frequency (%) ([3]; 1 μM copper in DBC3 resting and selection media, Average of exp 1-2): 23.8%
Transformation frequency (%) ([3]; 1 μM copper in DBC3 resting and selection media, single experiments exp 1-2): 30.0% and 17.5%
Transformation frequency (%) ([3]; 4 μM copper in DBC3 resting and selection media, Average of exp 1-2): 17.1%
Transformation frequency (%) ([3]; 5 μM copper in DBC3 resting and selection media, Average of exp 1-2): 26.3%
Transformation frequency (%) ([3]; 5 μM copper in DBC3 resting and selection media, single experiments exp 1-2): 27.5% and 25.0%
Transformation frequency (%) [4, 7]: 4.4%
Transformation frequency (%) [4, 8]: 2.5% and 5.0% and 7.5%
increase of transformation frequency over 0.1 μM copper ([4]; 1 μM copper and above, maize): 3-5 times
Transformation frequency (%) ([4]; 1 μM copper in DBC3 resting and selection media, Average of exp 1-4): 16.9%
Transformation frequency (%) ([4]; 1 μM copper in DBC3 resting and selection media, single experiments exp 1-4): 15% and 17.5% and 20%
Transformation frequency (%) ([4]; 4 μM copper in DBC3 resting and selection media, Average of exp 1-4): 11.9%
Transformation frequency (%) [4, 9]: 23.1%
Transformation frequency (%) [5, 7]: 2.0%
Transformation frequency (%) [5, 8]: 3.33% and 2.50% and 0.00%
increase of transformation frequency over 0.1 μM copper ([5]; 5 μM copper and above, sorghum): 4-6 times
Transformation frequency (%) [5, 9]: 13.8%
Transformation frequency (%) ([5]; 5 μM copper in DBC3 resting and selection media, single experiments exp 1-4): 16.67% and 15.00% and 8.33%
Transformation frequency (%) ([5]; 10 μM copper in DBC3 resting and selection media, Average): 13.0%
Transformation frequency (%) ([5]; 10 μM copper in DBC3 resting and selection media, single experiments exp 1-4): 20.00% and 10.00% and 12.50%
Transformation frequency (%) ([5]; 30 μM copper in DBC3 resting and selection media, Average of exp 1-4): 8.2%
Transformation frequency (%) ([5]; 50 μM copper in DBC3 resting and selection media, Average of exp 1-4): 9.6%
Transformation frequency (%) ([5]; 50 μM copper in DBC3 resting and selection media, single experiments exp 1-4): 5.00% and 10.00% and 11.11%
Transformation frequency (%) ([6]; 0.1 μM copper (negative control) in DBC3 resting and selection media, Average of exp 1-5): 2.9%
Transformation frequency (%) ([6]; 0.1 μM copper (negative control) in DBC3 resting and selection media, single experiments exp 1-5): 5.0% and 0.0% and 10.0%
increase of transformation frequency over 0.1 μM copper ([6]; 5 μM copper and above, maize): 4-7 times
Transformation frequency (%) ([6]; 5 μM copper in DBC3 resting and selection media, Average of exp 1-5): 23.5%
Transformation frequency (%) ([6]; 10 μM copper in DBC3 resting and selection media, Average of exp 1-5): 19.0%
Transformation frequency (%) ([6]; 30 μM copper in DBC3 resting and selection media, Average of exp 1-5): 14.0%
Transformation frequency (%) ([6]; 50 μM copper in DBC3 resting and selection media, Average of exp 1-5): 21.0%
